Test results published in US20090306020A1, “Combination therapy comprising diaryl ureas for treating diseases” (Bayer Healthcare AG, priority 2005, published 2009).
Entries after “also recorded” stand apart in the source; their conditions may differ.

Columns and labels:
avβ3 integrin = assay: Flow cytometry of cell surface avβ3 integrin, 451Lu monolayer; assay type: cell-based, human; details: 4 μM wortmannin, 6 μM BAY 43-9006, alone or combined, 96 hours
Experimental: (§1) For blockade of the AKT and MAPK signaling pathways, the PI3K inhibitor wortmannin (Sigma, Steinheim, Germany) and BAY 43-9006 alone or in combination were added directly to the culture medium of the melanoma reconstructs or melanoma cells in monolayer culture at 4 μM and 6 μM, respectively. […] The culture medium was changed every two days. Melanoma reconstructs treated with culture medium or culture medium with the addition of DMSO served as controls. All experiments were done as duplicates and were repeated twice.
(§2) Surface proteins of 1×10^5-1×10^6 451Lu metastatic melanoma cells were stained as follows: Cells were pelleted for 5 min at 1,800 rpm (Heraeus variofuge 3.0R), blocked with 1×PBS/1% BSA, and after centrifugation incubated with antibodies against MeI-CAM (QBiogene-Alexis) or avβ3 integrin (BD Biosciences, Heidelberg) for 15 minutes at room temperature. Cells were washed with 1×PBS/1% BSA and subsequently incubated with anti mouse IgG-FITC (BD Biosciences, Heidelberg) or mouse IgG-isotype control-FITC alone (BD Biosciences, Heidelberg). After washing and pelleting the cells, the cell pellet was resuspended in 1×PBS and measured in a FACScalibur (BD Bioscienses, Heidelberg).
(§3) Furthermore, we examined whether inhibition of these signaling pathways affected expression of the adhesion molecules MelCAM and avβ3 known to play a key role in melanoma cell invasion. […]

[1] = test system: phospho-ERK (phospho-p44/42 MAP kinase, Thr202/Tyr204); assay: Immunohistochemistry for phosphorylated ERK in melanoma reconstructs; assay type: cell-based, human; details: Skmel28 reconstructs; 6 μM BAY 43-9006
Experimental: (§4) The in vitro reconstruction of metastatic melanoma is based on the organotypic human skin culture technique (14). A cell-free buffered collagen solution was prepared consisting of rat tail collagen type I (BD Biosciences, Bedford, Mass., USA) at a final concentration of 1.35 mg/ml in Dulbecco's modified Eagle's medium with 10% FBS. 1.0 ml of the cell-free collagen solution was added to tissue culture inserts (Millicell PC, Millipore, Bedford, Mass., USA) placed in six-well tissue culture plates. While the acellular collagen layer was solidifying, a second collagen solution was prepared similar to the first with the addition of human fibroblasts and the melanoma cells SKMEL28 or 451 LU. Human fibroblasts and human melanoma cells from subconfluent cultures were trypsinised, washed and resuspended in the second collagen solution at a density of 15×10^5/ml and a fibroblast to melanoma cell ratio of 1:1. 3.0 ml of the fibroblast and melanoma cell-containing collagen solution were placed over the solidified acellular collagen layer. After 5 days of incubation at 37° C., the fibroblast contraction force causes the collagen gel to contract. This structure represents the melanoma reconstruct in a dermal equivalent. […] After 10 to 14 days of submerged culture, the melanoma reconstructs were harvested and evaluated. […]

[2] = test system: Skmel28 metastatic melanoma cells; assay: Invasive melanoma growth in human dermal reconstructs (hematoxylin staining); assay type: cell-based; details: 4 μM wortmannin; for invasive melanoma growth (number and size of melanoma cell nests): 6 μM BAY 43-9006, alone or combined
Experimental: (§5) The in vitro reconstruction of metastatic melanoma is based on the organotypic human skin culture technique (14). A cell-free buffered collagen solution was prepared consisting of rat tail collagen type I (BD Biosciences, Bedford, Mass., USA) at a final concentration of 1.35 mg/ml in Dulbecco's modified Eagle's medium with 10% FBS. 1.0 ml of the cell-free collagen solution was added to tissue culture inserts (Millicell PC, Millipore, Bedford, Mass., USA) placed in six-well tissue culture plates. While the acellular collagen layer was solidifying, a second collagen solution was prepared similar to the first with the addition of human fibroblasts and the melanoma cells SKMEL28 or 451 LU. Human fibroblasts and human melanoma cells from subconfluent cultures were trypsinised, washed and resuspended in the second collagen solution at a density of 15×10^5/ml and a fibroblast to melanoma cell ratio of 1:1. 3.0 ml of the fibroblast and melanoma cell-containing collagen solution were placed over the solidified acellular collagen layer. After 5 days of incubation at 37° C., the fibroblast contraction force causes the collagen gel to contract. This structure represents the melanoma reconstruct in a dermal equivalent. For submerged culture conditions, 3 ml of melanoma cell culture medium supplemented with 10% FBS were added beneath the insert and 2 ml inside the insert to allow proliferation of the seeded cells. The culture medium was changed every two days. After 10 to 14 days of submerged culture, the melanoma reconstructs were harvested and evaluated.
(§6) For blockade of the AKT and MAPK signaling pathways, the PI3K inhibitor wortmannin (Sigma, Steinheim, Germany) and BAY 43-9006 alone or in combination were added directly to the culture medium of the melanoma reconstructs or melanoma cells in monolayer culture at 4 μM and 6 μM, respectively. These concentrations have been described previously to be effective for melanoma cells 6 (16). The culture medium was changed every two days. Melanoma reconstructs treated with culture medium or culture medium with the addition of DMSO served as controls. All experiments were done as duplicates and were repeated twice.
Melanoma reconstructs were fixed with 4% formaldehyde for 8-9 h, dehydrated, and embedded in paraffin. Paraffin sections were stained with hematoxylin for routine light microscopy. […]
Finally, we determined whether the inhibition of the PI3K/AKT signaling pathway and the MAP kinase signaling pathway is able to affect invasive melanoma growth in a physiological context. […]

[3] = test system: Skmel28 metastatic melanoma cells; assay: Active caspase 3 staining (apoptosis) of melanoma reconstructs; assay type: cell-based, human; details: Skmel28 in dermal reconstructs; wortmannin, BAY 43-9006 or both
Experimental: as §4

MelCAM [4] = assay: Immunohistochemistry for MelCAM in metastatic melanoma reconstructs; assay type: cell-based, human; details: Skmel28 and WM451Lu in dermal reconstructs; 4 μM wortmannin, 6 μM BAY 43-9006, alone or combined
Experimental: as §4

[5] = test system: Skmel28 metastatic melanoma cells; assay: Ki-67 proliferation marker staining of melanoma reconstructs (organotypic culture); assay type: cell-based, human; details: Skmel28 in dermal reconstructs; 4 μM wortmannin, 6 μM BAY 43-9006, alone or combined; 2-3 weeks
Experimental: as §4

β3 integrin = assay: Immunohistochemistry for β3 integrin in metastatic melanoma reconstructs; assay type: cell-based, human; details: Skmel28 and WM451Lu in dermal reconstructs, 4 μM wortmannin, 6 μM BAY 43-9006, alone or combined
Experimental: as §5
as §6, with “Melanoma reconstructs treated with culture medium or culture medium with the addition of DMSO served as controls. All experiments were done as duplicates and were repeated twice.” left out

[6] = test system: 451Lu metastatic melanoma cells; assay: Proliferation assay (fluorimetric, 4-methylumbelliferyl heptanoate, MUH), monolayer culture; assay type: cell-based, human; details: 451Lu monolayer; wortmannin 2-20 μM, BAY 43-9006 1-7 μM; MUH fluorescence
Experimental: Cells were seeded as triplicates in 96 well plates at a density of 1,500 cells per well in 150 μl medium (1×10^4 cells per ml). The PI3K inhibitor wortmannin (Sigma, Steinheim, Germany) was directly added to the culture medium at concentrations ranging from 2-20 μM. BAY 43-9006 was added directly to the culture medium at concentrations ranging from 0.5-7 μM. Culture medium, cells treated with culture medium, and cells treated with culture medium with the addition of DMSO served as controls. Assay was started at timepoints indicated. Medium was discarded and each well was washed two times with PBS (without Ca2+ and Mg2+) and 100 μl of a solution containing 100 μg MUH (4-methylumbelliferyl-hepanoat)/ml PBS was added. Plates were incubated at 37° C. for one hour and measured in a Fluoroskan II (Labsystems, Helsinki), with an […]. The intensity of fluorescence indicates the number of vital cells in the wells (18,19).
To analyze the effects of inhibition of either the MAPK or AKT signaling pathways or both together on the proliferation of melanoma cells, we treated the metastatic melanoma cell line 451Lu in monolayer with the PI3K inhibitor wortmannin, BAY 43-9006, or both together. […]
The effect of inhibition of these signaling pathways on cell proliferation was determined by a fluorimetric assay using 4-methylumbelliferyl heptanoate (MUH) (18, 19).

phospho-AKT (Ser473) = assay: Immunohistochemistry for phosphorylated AKT in melanoma reconstructs; assay type: cell-based, human; details: Skmel28 reconstructs; 4 μM wortmannin
Experimental: as §4

MelCAM [7] = assay: Flow cytometry of cell surface MelCAM, 451Lu monolayer; assay type: cell-based, human; details: 4 μM wortmannin, 6 μM BAY 43-9006, alone or combined, 96 hours
Experimental: as §1, §2, §3

SMILES	cell surface expression of avβ3 integrin (avβ3 integrin)	inhibition of phosphorylation of ERK (MAP-kinase pathway) [1]	invasive melanoma growth (number and size of melanoma cell nests) [2]	active caspase 3 (ongoing apoptosis) [3]	expression of MelCAM (MelCAM [4])	cell proliferation (Ki-67 staining) [5]	expression of β3 integrin (β3 integrin)	effect on number of proliferating (vital) cells / proliferation rate [6]	inhibition of phosphorylation of AKT (phospho-AKT (Ser473))	cohesion of melanoma cells (melanoma-melanoma cell adhesion) [2]	morphology of melanoma cells [2]	expression of β3 integrin (β3 integrin; listed as Wortmannin)	cell surface expression of MelCAM (MelCAM [7])
CNC(=O)c1cc(Oc2ccc(NC(=O)Nc3ccc(Cl)c(C(F)(F)F)c3)cc2)ccn1 [BAY 43-9006, 4{4-[3-(4-chloro-3-trifluoromethylphenyl)-ureido]-phenoxy}-pyridine-2-carboxylic acid methyl amide]	down-regulates the expression of avβ3 integrin; also recorded: down-regulated	effective in the inhibition of phosphorylation	reduced invasive tumor growth; also recorded: reduced number and size of melanoma cell nests	active caspase 3 was found in the majority of Skmel28 metastatic melanoma cells	not affected; also recorded: did not appear to affect MelCAM expression	significant decrease in cell proliferation	significantly reduced; also recorded: substantially reduced β3 integrin expression	significantly reduced; also recorded: significant decrease in cell proliferation	–	–	–	–	–
COC[C@H]1OC(=O)c2coc3c2[C@@]1(C)C1=C(C3=O)[C@@H]2CCC(=O)[C@@]2(C)C[C@H]1OC(C)=O [wortmannin]	–	–	reduced invasive tumor growth; also recorded: number and size of melanoma cell nests were reduced	active caspase 3 was found in the majority of Skmel28 metastatic melanoma cells	downregulated the expression of MelCAM	little or no effect on proliferation rate	not altered	Little or no effect on the number of proliferating cells; also recorded: no significant effect on the number of proliferating cells	effective in the inhibition of phosphorylation	decreased	multidendritic morphology; also recorded: multidendritic phenotype	not affected	downregulates the expression of the adhesion molecules MelCAM; also recorded: down-regulates cell surface expression of MelCAM
